The results in this text go back to publication PMC8111447 (Frontiers in Pharmacology, 2021).

Broadly, the IC50 is the concentration that gives 50% inhibition. For orientation: inhibition means the share of the control response that was lost under treatment. A high value points to strong suppression.

One experiment concerns the target EGFR^L858R (Homo sapiens, UniProt P00533, L858R). Briefly: EGFR kinase inhibition assay (HTRF). The format is biochemical. The following applies: 30 μmol/L ATP, no pre-incubation, n = 3. The method, then:
(§1) The sequence of the substrate is proprietary to CisBio. […] Kinase activity assays were performed in a total reaction volume of 3 μl per well. […] The substrate mixture (1.5 μl) consisted of 1 μmol/L TK substrate, 30 μmol/L ATP, 1 mmol/L DTT, and 10 mmol/L MgCl2. […] The plates were incubated for 1 h before being read on Pherastar using standard HTRF settings. […] There was no pre-incubation of the test compounds with the enzyme/substrate mixture prior to ATP addition. For IC50 calculation, data were analyzed using XLFit version 5.3.
In general terms: In TR-FRET formats the signal depends on donor and acceptor labels being close together.

For another experiment, the target named is T1, EGFR^L858R/T790M (Homo sapiens, UniProt P00533, L858R/T790M).
T1 construct: with amino acids 696-end containing the mutations T790M and L858R; GST (N); purchased Millipore
Kind of experiment: EGFR kinase inhibition assay (HTRF). The format is biochemical. The following applies: 30 μmol/L ATP, no pre-incubation, n = 3. The procedure: as §1

The target of the next experiment is EGFR^L861Q (Homo sapiens, UniProt P00533, L861Q). Kind of experiment: EGFR kinase inhibition assay (HTRF). The note with it: 30 μmol/L ATP, no pre-incubation, n = 3. The format is biochemical. The method, then:
as §1

The next experiment concerns the target EGFR^WT (Homo sapiens, UniProt P00533). Kind of experiment: EGFR kinase inhibition assay (HTRF). The format is biochemical. The following applies: 30 μmol/L ATP, no pre-incubation, n = 3. The procedure: as §1
For a further experiment, the target named is EGFR^d746–750 (Homo sapiens, UniProt P00533, DEL746-750). Briefly: EGFR kinase inhibition assay (HTRF). The format is biochemical. The following applies: 30 μmol/L ATP, no pre-incubation, n = 3. The procedure: as §1
Another experiment addresses EGFR^d746–750/T790M (Homo sapiens, UniProt P00533, DEL746-750/T790M). Kind of experiment: EGFR kinase inhibition assay (HTRF). The format is biochemical. The following applies: 30 μmol/L ATP, no pre-incubation, n = 3. The method, then: as §1
A further experiment deals with T2, Flt3(h) (Homo sapiens, UniProt P36888).
T2 construct: purchased Eurofins
T2 sequence (P36888 27-993): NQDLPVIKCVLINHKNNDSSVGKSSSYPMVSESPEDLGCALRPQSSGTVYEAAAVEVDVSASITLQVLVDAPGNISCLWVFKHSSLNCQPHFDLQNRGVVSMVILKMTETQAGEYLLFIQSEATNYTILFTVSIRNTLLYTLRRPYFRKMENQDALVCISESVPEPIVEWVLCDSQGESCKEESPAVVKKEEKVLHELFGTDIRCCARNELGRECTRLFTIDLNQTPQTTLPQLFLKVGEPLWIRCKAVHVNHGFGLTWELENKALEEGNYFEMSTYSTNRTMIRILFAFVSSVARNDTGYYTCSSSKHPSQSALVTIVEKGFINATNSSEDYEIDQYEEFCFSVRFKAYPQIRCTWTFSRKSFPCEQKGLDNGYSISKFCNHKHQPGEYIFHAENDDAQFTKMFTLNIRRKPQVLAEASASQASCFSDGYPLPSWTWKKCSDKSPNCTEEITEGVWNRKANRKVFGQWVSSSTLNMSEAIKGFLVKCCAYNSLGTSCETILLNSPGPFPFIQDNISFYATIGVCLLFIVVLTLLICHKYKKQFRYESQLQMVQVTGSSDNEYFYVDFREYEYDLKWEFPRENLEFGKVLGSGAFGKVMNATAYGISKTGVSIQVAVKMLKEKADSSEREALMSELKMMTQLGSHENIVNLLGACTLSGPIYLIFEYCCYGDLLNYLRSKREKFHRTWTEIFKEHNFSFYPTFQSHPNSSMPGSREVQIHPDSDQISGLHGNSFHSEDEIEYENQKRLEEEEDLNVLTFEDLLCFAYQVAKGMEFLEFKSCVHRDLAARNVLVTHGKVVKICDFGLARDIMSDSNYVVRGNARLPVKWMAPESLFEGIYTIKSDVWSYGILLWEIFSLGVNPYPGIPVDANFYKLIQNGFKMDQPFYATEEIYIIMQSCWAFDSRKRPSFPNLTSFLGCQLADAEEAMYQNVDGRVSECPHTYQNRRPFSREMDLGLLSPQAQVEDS
Briefly: Kinase panel (Eurofins). Type of experiment: biochemical. The following applies: n = 2; for inhibition at 1 µM: at 1 μmol/L; for IC50: read-out: IC50 kinase inhibition. The source says:
(§2) These receptors have a methionine gatekeeper in their kinase domains, and are related to hyperglycemia in other clinical trials of EGFR TKI, such as Co-1686.

A further experiment addresses T3, PTK5(h) (Homo sapiens, UniProt P42685).
T3 construct: purchased Eurofins
Kind of experiment: Kinase panel (Eurofins). Type of experiment: biochemical. The following applies: n = 2; for inhibition at 1 µM: at 1 μmol/L; for IC50: read-out: IC50 kinase inhibition.
Source text: as §2

The subject of the next experiment is A431 (EGFR^WT). Briefly: Cell proliferation assay (CTG, 72 h). The format is cell-based. The note with it: Homo sapiens, A-431, A431 cells, mean ± SD, n = 3. The procedure:
(§3) Human lung cancer cell lines (NCI-H1975, H3255 and A431) were obtained from the American Type Culture Collection (ATCC), while PC-9 cell line was supplied by the European Collection of Authenticated Cell Cultures (ECACC). For in vivo implantation, NCI-H1975, H3255 and PC-9 cells were cultured in RPMI1640 (Invitrogen) supplemented with 10% v/v fetal calf serum (Sigma-Aldrich) and 2 mmol/L L-glutamine (Invitrogen). A431 cells were cultured in DMEM (Invitrogen) supplemented with 10% v/v fetal calf serum and 2 mmol/L v/v L-glutamine. All cell lines were then cultured in a humidified incubator with 5% CO2 at 37°C.
(§4) Test compounds were dissolved in DMSO as a 10 mmol/L stock solution. The initial concentration of compounds were 10 μmol/L and the 3-fold dilution was nine times. […] Plate was shaked for 2 min and the mixture was incubated at room temperature for 10 min.
(§5) The half-maximal inhibition concentration (IC50) values were processed by GraphPad Prism7 (GraphPad Software; La Jolla, CA).

The subject of experiment [1] is NCI-H1975 (EGFR^L858R/T790M). Briefly: Cell proliferation assay (CTG, 72 h). The note with it: Homo sapiens, NCI-H1975 cells, mean ± SD, n = 3. The format is cell-based. The procedure: as §3, §4, §5
The subject of the next experiment is H3255 (EGFR^L858R). Kind of experiment: Cell proliferation assay (CTG, 72 h). The format is cell-based, human. The note with it: for IC50: Homo sapiens, NCI-H3255, H3255 cells, 72 h, mean ± SD, n = 3. The method, then: as §3, §4, §5
Another experiment has as its system PC-9 (EGFR^d746–750). Briefly: Cell proliferation assay (CTG, 72 h). Type of experiment: cell-based, human. The note with it: for IC50: Homo sapiens, PC-9 cells, 72 h, mean ± SD, n = 3. The method, then:
as §3, §4, §5

In experiment [2] the test system is EGFR phosphorylation (pY1068) in NCI-H1975 cells. Kind of experiment: Phosphorylation of EGFR assay, time course. Type of experiment: cell-based, human. The note with it: 0.1 μmol/L, 1-10 h. The method, then:
Cells (NCI-H1975/PC-9/[…]) were seeded into a 384-well plate (10,000 cells/well), grown for 24 h, and then treated with different test compounds (0.1 μmol/L) for 1, 2, 4, 6, 8 and 10 h. A431 cells were stimulated with 100 ng/ml EGF after incubation for 10 min. Cells were washed with ice-cold HBSS before extraction with 25 μl cell lysis buffer. Phosphorylation of EGFR was measured using a sandwich ELISA assay with phospho-specific EGFR (pY1068) antibodies [AlphaLISA SureFire p-EGF Receptor (Tyr1068) Assay Kit, PerkinElmer].

T3 sequence (P42685 whole entry): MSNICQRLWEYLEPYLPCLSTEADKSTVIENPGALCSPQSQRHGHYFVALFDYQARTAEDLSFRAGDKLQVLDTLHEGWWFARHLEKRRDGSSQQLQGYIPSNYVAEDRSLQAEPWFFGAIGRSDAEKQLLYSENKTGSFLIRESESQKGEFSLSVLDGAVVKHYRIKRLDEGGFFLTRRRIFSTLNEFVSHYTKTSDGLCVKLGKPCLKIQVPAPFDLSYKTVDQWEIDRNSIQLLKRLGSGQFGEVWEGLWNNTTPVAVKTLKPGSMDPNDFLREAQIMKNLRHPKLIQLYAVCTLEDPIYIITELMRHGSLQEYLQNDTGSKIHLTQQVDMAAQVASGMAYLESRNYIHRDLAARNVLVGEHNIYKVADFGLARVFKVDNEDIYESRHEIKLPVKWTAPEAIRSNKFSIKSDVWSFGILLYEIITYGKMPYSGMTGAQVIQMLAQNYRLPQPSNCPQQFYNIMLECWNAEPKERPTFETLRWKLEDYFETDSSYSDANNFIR
EGFR^L858R, sequence (P00533 25-1210 L858R): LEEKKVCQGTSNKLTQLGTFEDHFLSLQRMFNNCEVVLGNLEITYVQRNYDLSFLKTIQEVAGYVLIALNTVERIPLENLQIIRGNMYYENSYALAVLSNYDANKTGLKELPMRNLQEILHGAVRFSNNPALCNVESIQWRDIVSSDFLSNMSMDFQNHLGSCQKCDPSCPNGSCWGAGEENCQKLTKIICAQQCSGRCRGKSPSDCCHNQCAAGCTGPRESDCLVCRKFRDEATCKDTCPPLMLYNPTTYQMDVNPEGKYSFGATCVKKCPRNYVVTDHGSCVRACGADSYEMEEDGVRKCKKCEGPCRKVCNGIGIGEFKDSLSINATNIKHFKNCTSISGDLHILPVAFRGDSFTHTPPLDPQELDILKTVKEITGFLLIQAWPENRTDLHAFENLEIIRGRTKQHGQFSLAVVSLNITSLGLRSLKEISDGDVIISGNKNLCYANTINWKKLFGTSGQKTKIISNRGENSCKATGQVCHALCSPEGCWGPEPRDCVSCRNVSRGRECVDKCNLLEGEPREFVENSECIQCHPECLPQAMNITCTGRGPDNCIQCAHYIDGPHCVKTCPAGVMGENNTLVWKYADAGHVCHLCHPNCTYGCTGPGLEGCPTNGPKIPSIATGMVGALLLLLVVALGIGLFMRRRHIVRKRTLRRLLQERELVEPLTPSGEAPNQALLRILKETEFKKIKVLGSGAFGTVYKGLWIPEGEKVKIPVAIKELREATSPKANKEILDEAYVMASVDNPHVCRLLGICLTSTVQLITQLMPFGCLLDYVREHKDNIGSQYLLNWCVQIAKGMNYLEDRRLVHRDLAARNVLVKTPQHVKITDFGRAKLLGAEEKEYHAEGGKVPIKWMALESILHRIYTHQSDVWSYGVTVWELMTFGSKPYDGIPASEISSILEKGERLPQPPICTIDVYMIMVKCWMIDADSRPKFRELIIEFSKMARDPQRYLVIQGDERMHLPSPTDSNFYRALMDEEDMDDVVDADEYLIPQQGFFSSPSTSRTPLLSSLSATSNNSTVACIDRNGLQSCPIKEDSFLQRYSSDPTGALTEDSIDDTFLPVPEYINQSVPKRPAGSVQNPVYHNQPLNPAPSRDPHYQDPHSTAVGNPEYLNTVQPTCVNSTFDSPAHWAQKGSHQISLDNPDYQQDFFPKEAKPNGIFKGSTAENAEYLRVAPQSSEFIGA
EGFR^WT, sequence (P00533 25-1210): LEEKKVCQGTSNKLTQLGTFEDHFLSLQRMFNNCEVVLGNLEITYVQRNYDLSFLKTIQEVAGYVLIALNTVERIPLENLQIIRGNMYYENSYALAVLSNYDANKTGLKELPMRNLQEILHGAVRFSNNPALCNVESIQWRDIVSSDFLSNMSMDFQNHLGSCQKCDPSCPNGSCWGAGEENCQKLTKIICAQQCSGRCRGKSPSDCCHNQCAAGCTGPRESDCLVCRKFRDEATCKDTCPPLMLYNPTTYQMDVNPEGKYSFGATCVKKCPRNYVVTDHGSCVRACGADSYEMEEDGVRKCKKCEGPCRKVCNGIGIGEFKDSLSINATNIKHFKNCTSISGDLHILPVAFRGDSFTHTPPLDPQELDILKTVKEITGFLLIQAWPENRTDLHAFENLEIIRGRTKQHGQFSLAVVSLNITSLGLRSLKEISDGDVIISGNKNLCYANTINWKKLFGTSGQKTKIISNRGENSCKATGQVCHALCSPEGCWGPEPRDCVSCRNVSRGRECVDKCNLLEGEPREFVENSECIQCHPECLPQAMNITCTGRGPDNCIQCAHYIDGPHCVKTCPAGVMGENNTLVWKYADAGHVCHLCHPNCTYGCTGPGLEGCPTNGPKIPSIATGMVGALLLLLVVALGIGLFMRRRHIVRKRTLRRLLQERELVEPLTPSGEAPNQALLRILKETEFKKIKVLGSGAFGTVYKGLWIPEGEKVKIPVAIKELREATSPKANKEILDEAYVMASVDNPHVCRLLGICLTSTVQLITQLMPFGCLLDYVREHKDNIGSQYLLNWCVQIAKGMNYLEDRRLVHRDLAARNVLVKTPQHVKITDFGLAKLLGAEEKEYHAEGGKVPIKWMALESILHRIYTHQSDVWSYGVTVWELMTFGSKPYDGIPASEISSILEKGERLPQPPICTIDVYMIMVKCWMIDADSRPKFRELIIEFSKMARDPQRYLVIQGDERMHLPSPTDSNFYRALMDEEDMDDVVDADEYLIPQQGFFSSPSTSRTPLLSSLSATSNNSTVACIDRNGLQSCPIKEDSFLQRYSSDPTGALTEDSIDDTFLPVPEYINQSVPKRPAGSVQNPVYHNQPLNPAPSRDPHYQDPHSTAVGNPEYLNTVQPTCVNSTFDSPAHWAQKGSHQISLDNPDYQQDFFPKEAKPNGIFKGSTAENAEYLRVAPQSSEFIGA
EGFR^L861Q, sequence (P00533 25-1210 L861Q): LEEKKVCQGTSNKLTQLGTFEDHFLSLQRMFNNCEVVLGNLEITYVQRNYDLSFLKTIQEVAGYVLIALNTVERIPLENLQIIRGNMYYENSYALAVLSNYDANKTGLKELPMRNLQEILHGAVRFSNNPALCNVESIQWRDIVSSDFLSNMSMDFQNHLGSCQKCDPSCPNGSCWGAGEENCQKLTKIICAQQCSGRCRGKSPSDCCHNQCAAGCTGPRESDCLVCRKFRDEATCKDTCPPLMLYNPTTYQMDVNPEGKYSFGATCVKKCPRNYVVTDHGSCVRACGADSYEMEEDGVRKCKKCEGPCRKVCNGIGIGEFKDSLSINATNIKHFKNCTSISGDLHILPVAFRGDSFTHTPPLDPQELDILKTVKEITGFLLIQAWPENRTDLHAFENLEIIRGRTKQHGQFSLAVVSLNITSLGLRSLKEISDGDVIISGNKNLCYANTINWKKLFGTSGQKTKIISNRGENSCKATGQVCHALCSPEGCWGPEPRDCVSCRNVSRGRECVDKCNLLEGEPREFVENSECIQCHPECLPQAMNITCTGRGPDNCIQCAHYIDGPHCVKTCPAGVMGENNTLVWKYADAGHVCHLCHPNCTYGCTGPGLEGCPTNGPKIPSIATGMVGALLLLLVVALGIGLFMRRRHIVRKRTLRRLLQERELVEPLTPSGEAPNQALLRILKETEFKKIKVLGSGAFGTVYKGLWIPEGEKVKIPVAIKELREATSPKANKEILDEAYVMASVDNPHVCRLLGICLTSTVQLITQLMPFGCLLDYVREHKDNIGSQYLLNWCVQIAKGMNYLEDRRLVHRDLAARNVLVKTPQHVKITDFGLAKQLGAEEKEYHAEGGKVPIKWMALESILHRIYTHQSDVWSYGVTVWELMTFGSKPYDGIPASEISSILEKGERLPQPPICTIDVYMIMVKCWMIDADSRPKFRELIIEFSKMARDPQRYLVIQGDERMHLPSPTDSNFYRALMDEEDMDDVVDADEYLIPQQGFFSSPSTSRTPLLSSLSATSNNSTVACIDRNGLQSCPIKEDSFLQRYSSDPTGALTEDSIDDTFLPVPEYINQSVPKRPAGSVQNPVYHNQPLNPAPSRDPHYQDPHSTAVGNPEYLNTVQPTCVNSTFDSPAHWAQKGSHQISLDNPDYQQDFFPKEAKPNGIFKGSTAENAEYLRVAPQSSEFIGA
T1 sequence (P00533 696-1210 T790M/L858R): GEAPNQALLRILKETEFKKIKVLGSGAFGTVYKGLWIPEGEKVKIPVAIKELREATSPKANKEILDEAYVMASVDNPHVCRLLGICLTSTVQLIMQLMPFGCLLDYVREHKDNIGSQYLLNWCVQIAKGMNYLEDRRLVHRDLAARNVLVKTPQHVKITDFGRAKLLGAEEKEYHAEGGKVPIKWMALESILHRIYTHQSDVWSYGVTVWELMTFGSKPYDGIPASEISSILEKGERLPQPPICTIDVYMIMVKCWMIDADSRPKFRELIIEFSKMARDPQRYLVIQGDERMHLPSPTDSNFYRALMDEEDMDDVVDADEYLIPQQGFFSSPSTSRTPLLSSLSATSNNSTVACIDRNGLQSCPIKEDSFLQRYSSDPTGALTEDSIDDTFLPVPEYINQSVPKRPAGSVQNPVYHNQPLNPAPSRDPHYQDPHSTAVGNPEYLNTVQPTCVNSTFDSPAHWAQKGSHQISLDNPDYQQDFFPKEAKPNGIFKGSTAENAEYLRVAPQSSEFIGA

For the compound `C=CC(=O)Nc1cc(Nc2nccc(-c3c4n(c5ccccc35)CCCC4)n2)c(OC)cc1N(C)CCNC` [Imp3], the IC50 on EGFR^L858R was determined as 6 nM; on EGFR^L858R/T790M, 1 nM; against EGFR^L861Q it was 32 nM; against EGFR^WT, 144 nM; against EGFR^d746–750, 1.7 nM; against EGFR^d746–750/T790M, 1.1 nM. The concentration for half-maximal inhibition (IC50) at Flt3(h) was 45 nM; at PTK5(h), 736 nM; with A431 (EGFR^WT) it was 704 ± 92.5 nM; in [1], 6.56 ± 1.43 nM; in the experiment with H3255 (EGFR^L858R), 17.1 ± 0.55 nM; in the experiment on PC-9 (EGFR^d746–750), 15 ± 0.65 nM. In addition, the inhibition at 1 µM against Flt3(h) is 97%; at PTK5(h), 64%. Besides, the “inhibitory effect on EGFR phosphorylation” value in experiment [2] is reported as “stronger inhibitory effects on EGFR phosphorylation compared to osimertinib”.

With `C=CC(=O)Nc1cc(Nc2nccc(-c3c4n(c5ccccc35)CCCC4)n2)c(OC)cc1N(C)CCN(C)C` [SH-1028], the IC50 against EGFR^L858R came out at 0.7 nM; against EGFR^L858R/T790M, 0.1 nM; on EGFR^L861Q, 4 nM; against EGFR^WT it was 18 nM; against EGFR^d746–750, 1.4 nM; at EGFR^d746–750/T790M it was 0.89 nM. Further, the IC50 was 71 nM on Flt3(h); 644 nM on PTK5(h); 779 ± 135 nM in the experiment on A431 (EGFR^WT); 3.93 ± 1.12 nM in experiment [1]; 9.39 ± 0.88 nM in the experiment with H3255 (EGFR^L858R); 7.63 ± 0.18 nM with PC-9 (EGFR^d746–750). The inhibition at 1 µM at Flt3(h) was 88%; at PTK5(h), 39%. Moreover, the “fold more sensitive than the inhibition of wild-type EGFR in A431 cells” value in the experiment with H3255 (EGFR^L858R) (H3255 vs A431, proliferation IC50) was roughly 83 fold; in the experiment on PC-9 (EGFR^d746–750) (PC-9 vs A431, proliferation IC50) it was roughly 102 fold. Also, the “inhibitory effect on EGFR phosphorylation” value in experiment [2] was “stronger inhibitory effects on EGFR phosphorylation compared to osimertinib”.
